pIC50: −log10 of the molar value.

Data set [1] has as its system Chikungunya virus. Briefly: Antiviral activity against CHIKV infected in human Huh-7 cells assessed as inhibition of viral growth at 5 uM incubated for 12 hrs relative to control. It is filed as functional.
The subject of data set [2] is Chikungunya virus. The data set can be described thus: Antiviral activity against CHIKV infected in human Huh-7 cells assessed as inhibition of viral growth at 10 uM incubated for 12 hrs relative to control. It is filed as functional. Also noted: scale not given: the % may be the effect or the level left.
Data set [3] has as its system Chikungunya virus. The data set can be described thus: Antiviral activity against CHIKV infected in human Huh-7 cells assessed as inhibition of viral growth at 2.5 uM incubated for 12 hrs relative to control. It is filed as functional.
For the next data set, the system named is Huh-7. Briefly: Cytotoxicity against human Huh-7 cells assessed as reduction in cell viability at 5 uM by CCK8 assay relative to control. The format is toxicity, cell-based. To be noted: huh-7, 5 µM.
Data set [4] is described as follows: Cytotoxicity against human Huh-7 cells assessed as reduction in cell viability by CCK8 assay relative to control. It is filed as toxicity, cell-based.
Data set [5] deals with Chikungunya virus. Briefly: Antiviral activity against CHIKV infected in human Huh-7 cells assessed as inhibition of viral growth incubated for 12 hrs. The format is functional, organism-based. To be noted: Huh-7, 12 h.
A short description of data set [6]: Selectivity index, ratio of CC50 for cytotoxicity against human Huh-7 cells to IC50 for antiviral activity against CHIKV infected in human Huh-7 cells. It is filed as toxicity, cell-based. To be noted: read-out: Ratio CC50/IC50.

Take `O=C(/C=C/c1ccc(O)c(O)c1)N1CCN(C(c2ccccc2)c2ccc(Cl)cc2)CC1` (stereo not given): the inhibition at 5 µM in the data set on Chikungunya virus [1] was 34.7%. In addition, the Activity in the data set with Chikungunya virus [2] is 74.4%. Further, in the data set with Chikungunya virus [3], the inhibition at 2.5 µM was determined as 20.2%. Further, the cell viability in the data set with Huh-7 is on record as more than 80%.
For `O=C(/C=C/c1ccc(O)c(O)c1)N1CCN(C(c2ccc(F)cc2)c2ccc(F)cc2)CC1` the same measures were 43.9%, 96.3%, 20.1% and more than 80%.
`O=C(/C=C/c1ccccc1F)N1CCN(C(c2ccc(F)cc2)c2ccc(F)cc2)CC1`: the inhibition at 5 µM in the data set with Chikungunya virus [1] was 92.8%. In addition, the Activity in the data set on Chikungunya virus [2] was 95.8%. Besides, the inhibition at 2.5 µM in the data set with Chikungunya virus [3] worked out at 74.2%. Also, the CC50 in data set [4] was determined as 31.7 µM. The cell viability in the data set on Huh-7 is listed as more than 80%. The pIC50 in the data set with Chikungunya virus [5] was 6.21. Further, the selectivity ratio in data set [6] came out at 51.9.
Turning to `O=C(/C=C/c1ccc(F)cc1)N1CCN(C(c2ccc(F)cc2)c2ccc(F)cc2)CC1`, in the data set on Chikungunya virus [1], the inhibition at 5 µM was 19.6%. The Activity in the data set with Chikungunya virus [2] was 55.2%. For the same compound, the inhibition at 2.5 µM with Chikungunya virus [3] was determined as 9.7%. The cell viability in the data set with Huh-7 was more than 80%.
Regarding `O=C(/C=C/c1ccccc1F)N1CCN(C(c2ccccc2)c2ccccc2)CC1`, the inhibition at 5 µM in the data set with Chikungunya virus [1] is 62.1%. For the same compound, the Activity in the data set with Chikungunya virus [2] is given as 77.6%. The inhibition at 2.5 µM in the data set on Chikungunya virus [3] turned out to be 17.9%. Moreover, in data set [4], the CC50 was determined as 34.2 µM. Besides, the cell viability in the data set on Huh-7 was more than 80%. Also, the pIC50 in the data set with Chikungunya virus [5] was 5.35. Also, the selectivity ratio in data set [6] stood at 7.6.
`O=C(/C=C/c1cccc(F)c1)N1CCN(C(c2ccc(F)cc2)c2ccc(F)cc2)CC1`: the inhibition at 5 µM in the data set with Chikungunya virus [1] is 78.9%. Moreover, the Activity in the data set with Chikungunya virus [2] is given as 85.8%. Moreover, the inhibition at 2.5 µM in the data set with Chikungunya virus [3] came to 59.6%. Further, the CC50 in data set [4] was found to be 22.9 µM. Further, in the data set with Huh-7, the cell viability is more than 80%. For the same compound, the pIC50 in the data set with Chikungunya virus [5] is 5.69. Moreover, in data set [6], the selectivity ratio came to 11.1.
As for `Cc1ccc(/C=C/C(=O)N2CCN(C(c3ccccc3)c3ccc(Cl)cc3)CC2)cc1` (stereo not given), the inhibition at 5 µM in the data set on Chikungunya virus [1] is 29.7%. Also, the Activity with Chikungunya virus [2] is on record as 56.3%. In addition, the inhibition at 2.5 µM in the data set on Chikungunya virus [3] was 13.4%. Further, the cell viability in the data set on Huh-7 is reported as more than 80%.
`Cc1ccc(/C=C/C(=O)N2CCN(C(c3ccc(F)cc3)c3ccc(F)cc3)CC2)cc1`: in the data set with Chikungunya virus [1], the inhibition at 5 µM was 32.8%. Moreover, the Activity with Chikungunya virus [2] is on record as 84.3%. In addition, the inhibition at 2.5 µM with Chikungunya virus [3] was determined as 21.3%. Besides, the cell viability in the data set on Huh-7 is reported as more than 80%.
`O=C(/C=C/c1ccc2c(c1)OCO2)N1CCN(C(c2ccccc2)c2ccc(Cl)cc2)CC1` (stereo not given): the inhibition at 5 µM with Chikungunya virus [1] came to 52.3%. For the same compound, the Activity in the data set on Chikungunya virus [2] was determined as 86.5%. In the data set on Chikungunya virus [3], the inhibition at 2.5 µM stood at 13.2%. For the same compound, the CC50 in data set [4] is 31.4 µM. Further, in the data set on Huh-7, the cell viability is on record as more than 80%. Moreover, the pIC50 in the data set on Chikungunya virus [5] is 5.32. Besides, the selectivity ratio in data set [6] is 6.5.
For `O=C(/C=C/c1ccc2c(c1)OCO2)N1CCN(C(c2ccc(F)cc2)c2ccc(F)cc2)CC1`, the inhibition at 5 µM in the data set on Chikungunya virus [1] worked out at 93.1%. In addition, the Activity in the data set on Chikungunya virus [2] is recorded as 97.4%. In addition, in the data set with Chikungunya virus [3], the inhibition at 2.5 µM amounted to 86.9%. Besides, the CC50 in data set [4] turned out to be 29.7 µM. The cell viability in the data set with Huh-7 was more than 80%. In addition, the pIC50 in the data set with Chikungunya virus [5] is 6.35. In data set [6], the selectivity ratio stood at 66.
`O=C(/C=C/c1cccnc1)N1CCN(C(c2ccc(F)cc2)c2ccc(F)cc2)CC1`: the inhibition at 5 µM with Chikungunya virus [1] came to 54.4%. In addition, the Activity in the data set with Chikungunya virus [2] is recorded as 76.5%. In addition, the inhibition at 2.5 µM with Chikungunya virus [3] was 53.8%. Besides, the CC50 in data set [4] stood at 20.9 µM. Further, in the data set with Huh-7, the cell viability was more than 80%. In addition, the pIC50 in the data set on Chikungunya virus [5] was 5.79. Besides, in data set [6], the selectivity ratio turned out to be 13.
For `O=C(/C=C/c1ccncc1)N1CCN(C(c2ccc(F)cc2)c2ccc(F)cc2)CC1`, the inhibition at 5 µM in the data set on Chikungunya virus [1] was determined as 90.7%. Also, the Activity in the data set with Chikungunya virus [2] came out at 95.3%. In addition, in the data set on Chikungunya virus [3], the inhibition at 2.5 µM came to 58.1%. In addition, the CC50 in data set [4] is 31.3 µM. Besides, the cell viability with Huh-7 is more than 80%. For the same compound, the pIC50 in the data set with Chikungunya virus [5] is 5.63. For the same compound, the selectivity ratio in data set [6] came out at 13.3.
Consider `O=c1cc(-c2ccccc2)oc2cc(O)c(O)c(O)c12` [BAICALEIN], for which the CC50 in data set [4] is more than 100 µM. For the same compound, the pIC50 in the data set on Chikungunya virus [5] is 4.77. For the same compound, the selectivity ratio in data set [6] is more than 6.
For `COc1ccc(CN2CCN(C(c3ccc(F)cc3)c3ccc(F)cc3)CC2)c(OC)c1OC` [LOMERIZINE], in that order: more than 100 µM, 5.40 and more than 24.9.

The record behind these values is ChEMBL document CHEMBL5252584, “Design, synthesis and anti-Chikungunya virus activity of lomerizine derivatives” (Bioorg Med Chem Lett, 2023).
